Measurements as given in ChEMBL document CHEMBL5357035, “Previously Uncharacterized Variants, OCF-E-OCF-J, of the Antifungal Occidiofungin Produced by Burkholderia contaminans MS14” (2024).
In brackets after ≈: the same amount, converted by molar mass.

How the values were obtained:
Assay type in all cases: functional
[1] = tested on: Nakaseomyces glabratus; experiment: Antifungal activity against Candida glabrata ATCC2001 assessed as reduction in fungal growth measured after 24 hrs by CLSI protocol based method
[2] = tested on: Candida albicans; experiment: Antifungal activity against Candida albicans ATCC3147 assessed as reduction in fungal growth measured after 24 hrs by CLSI protocol based method
[3] = tested on: [Candida] auris; experiment: Antifungal activity against Candida auris MYA-500 assessed as reduction in fungal growth measured after 24 hrs by CLSI protocol based method; conditions: Candidozyma auris

SMILES	MIC [1] [µg/mL]	MIC [2] [µg/mL]	MIC [3] [µg/mL]
CCCCCCCCCCCCNC(=O)C[C@@H]1NC(=O)CNC(=O)[C@@H](CCN)NC(=O)[C@@H]([C@H](O)c2ccc(O)cc2)NC(=O)[C@H](CO)NC(=O)C[C@@H](C[C@@H](O)[C@@H](O)[C@@H](CCCCCCCCCCC)O[C@H]2OC[C@@H](O)[C@H](O)[C@H]2O)NC(=O)[C@H]([C@H](O)C(N)=O)NC(=O)[C@@H](CO)NC1=O	8 (≈ 5.78 µM)	> 8	–
CCCCCCCCCCC[C@@H](O[C@H]1OC[C@@H](O)[C@H](O)[C@H]1O)[C@H](O)[C@H](O)C[C@@H]1CC(=O)N[C@@H](CO)C(=O)N[C@H]([C@H](O)c2ccc(O)cc2)C(=O)N[C@H](CCN)C(=O)NCC(=O)N[C@@H](CC(=O)NCC)C(=O)N[C@H](CO)C(=O)N[C@@H](CC(N)=O)C(=O)N1	2 (≈ 1.63 µM)	2 (≈ 1.63 µM)	1 (≈ 0.814 µM)
CCCCCCCCCCC[C@@H](O[C@H]1OC[C@@H](O)[C@H](O)[C@H]1O)[C@H](O)[C@H](O)C[C@@H]1CC(=O)N[C@@H](CO)C(=O)N[C@H]([C@H](O)c2ccc(O)cc2)C(=O)N[C@H](CCN)C(=O)NCC(=O)N[C@@H](CC(=O)O)C(=O)N[C@H](CO)C(=O)N[C@@H](CC(N)=O)C(=O)N1	2 (≈ 1.66 µM)	2 (≈ 1.66 µM)	1 (≈ 0.832 µM)
CCCCCCCCCCCCNC(=O)C[C@@H]1NC(=O)CNC(=O)[C@@H](CCN)NC(=O)[C@@H]([C@H](O)c2ccc(O)cc2)NC(=O)[C@H](CO)NC(=O)C[C@@H](C[C@@H](O)[C@@H](O)[C@@H](CCCCCCCCCCC)O[C@H]2OC[C@@H](O)[C@H](O)[C@H]2O)NC(=O)[C@H](CC(N)=O)NC(=O)[C@@H](CO)NC1=O	8 (≈ 5.85 µM)	> 8	–
CCCCCCCCCCC[C@@H](O[C@H]1OC[C@@H](O)[C@H](O)[C@H]1O)[C@H](O)[C@H](O)C[C@@H]1CC(=O)N[C@@H](CO)C(=O)N[C@H]([C@H](O)c2ccc(O)cc2)C(=O)N[C@H](CCN)C(=O)NCC(=O)N[C@@H](CC(=O)NCCC)C(=O)N[C@H](CO)C(=O)N[C@@H]([C@H](O)C(N)=O)C(=O)N1	0.5 (≈ 0.397 µM)	0.5 (≈ 0.397 µM)	1 (≈ 0.795 µM)
CCCCCCCCCCC[C@@H](O[C@H]1OC[C@@H](O)[C@H](O)[C@H]1O)[C@H](O)[C@H](O)C[C@@H]1CC(=O)N[C@@H](CO)C(=O)N[C@H]([C@H](O)c2ccc(O)cc2)C(=O)N[C@H](CCN)C(=O)NCC(=O)N[C@@H](CC(=O)O)C(=O)N[C@H](CO)C(=O)N[C@@H]([C@H](O)C(N)=O)C(=O)N1	2 (≈ 1.64 µM)	2 (≈ 1.64 µM)	1 (≈ 0.821 µM)
CCCCCCCCCCC[C@@H](O[C@H]1OC[C@@H](O)[C@H](O)[C@H]1O)[C@H](O)[C@H](O)C[C@@H]1CC(=O)N[C@@H](CO)C(=O)N[C@H]([C@H](O)c2ccc(O)cc2)C(=O)N[C@H](CCN)C(=O)NCC(=O)N[C@@H](CC(=O)NCC)C(=O)N[C@H](CO)C(=O)N[C@@H]([C@H](O)C(N)=O)C(=O)N1	2 (≈ 1.61 µM)	2 (≈ 1.61 µM)	1 (≈ 0.804 µM)
CCCCCCCCCCC[C@@H](O[C@H]1OC[C@@H](O)[C@H](O)[C@H]1O)[C@H](O)[C@H](O)C[C@@H]1CC(=O)N[C@@H](CO)C(=O)N[C@H]([C@H](O)c2ccc(O)cc2)C(=O)N[C@H](CCN)C(=O)NCC(=O)N[C@@H](CC(=O)N(C)C)C(=O)N[C@H](CO)C(=O)N[C@@H](CC(N)=O)C(=O)N1	0.5 (≈ 0.407 µM)	1 (≈ 0.814 µM)	0.5 (≈ 0.407 µM)
CCCCCCCCCCC[C@@H](O[C@H]1OC[C@@H](O)[C@H](O)[C@H]1O)[C@H](O)[C@H](O)C[C@@H]1CC(=O)N[C@@H](CO)C(=O)N[C@H]([C@H](O)c2ccc(O)cc2)C(=O)N[C@H](CCN)C(=O)NCC(=O)N[C@@H](CC(=O)NC)C(=O)N[C@H](CO)C(=O)N[C@@H](CC(N)=O)C(=O)N1	0.5 (≈ 0.412 µM)	0.5 (≈ 0.412 µM)	0.5 (≈ 0.412 µM)
CCCCCCCCCCC[C@@H](O[C@H]1OC[C@@H](O)[C@H](O)[C@H]1O)[C@H](O)[C@H](O)C[C@@H]1CC(=O)N[C@@H](CO)C(=O)N[C@H]([C@H](O)c2ccc(O)cc2)C(=O)N[C@H](CCN)C(=O)NCC(=O)N[C@@H](CC(=O)NCCC)C(=O)N[C@H](CO)C(=O)N[C@@H](CC(N)=O)C(=O)N1	0.5 (≈ 0.402 µM)	0.5 (≈ 0.402 µM)	1 (≈ 0.805 µM)

Now from value to molecule:

MIC [1] [µg/mL]	MIC [2] [µg/mL]	MIC [3] [µg/mL]	SMILES
0.5 (≈ 0.402 µM)	1 (≈ 0.804 µM)	0.5 (≈ 0.402 µM)	CCCCCCCCCCC[C@@H](O[C@H]1OC[C@@H](O)[C@H](O)[C@H]1O)[C@H](O)[C@H](O)C[C@@H]1CC(=O)N[C@@H](CO)C(=O)N[C@H]([C@H](O)c2ccc(O)cc2)C(=O)N[C@H](CCN)C(=O)NCC(=O)N[C@@H](CC(=O)N(C)C)C(=O)N[C@H](CO)C(=O)N[C@@H]([C@H](O)C(N)=O)C(=O)N1
0.5 (≈ 0.399 µM)	0.5 (≈ 0.399 µM)	–	C#CCCNC(=O)C[C@@H]1NC(=O)CNC(=O)[C@@H](CCN)NC(=O)[C@@H]([C@H](O)c2ccc(O)cc2)NC(=O)[C@H](CO)NC(=O)C[C@@H](C[C@@H](O)[C@@H](O)[C@@H](CCCCCCCCCCC)O[C@H]2OC[C@@H](O)[C@H](O)[C@H]2O)NC(=O)[C@H](CC(N)=O)NC(=O)[C@@H](CO)NC1=O
0.25 (≈ 0.208 µM)	0.125 (≈ 0.104 µM)	0.25 (≈ 0.208 µM)	CCCCCCCCCCC[C@@H](O[C@H]1OC[C@@H](O)[C@H](O)[C@H]1O)[C@H](O)[C@H](O)C[C@@H]1CC(=O)N[C@@H](CO)C(=O)N[C@H]([C@H](O)c2ccc(O)cc2)C(=O)N[C@H](CCN)C(=O)NCC(=O)N[C@@H](CC(N)=O)C(=O)N[C@H](CO)C(=O)N[C@@H](CC(N)=O)C(=O)N1
0.5 (≈ 0.406 µM)	0.5 (≈ 0.406 µM)	0.5 (≈ 0.406 µM)	CCCCCCCCCCC[C@@H](O[C@H]1OC[C@@H](O)[C@H](O)[C@H]1O)[C@H](O)[C@H](O)C[C@@H]1CC(=O)N[C@@H](CO)C(=O)N[C@H]([C@H](O)c2ccc(O)cc2)C(=O)N[C@H](CCN)C(=O)NCC(=O)N[C@@H](CC(=O)NC)C(=O)N[C@H](CO)C(=O)N[C@@H]([C@H](O)C(N)=O)C(=O)N1
0.5 (≈ 0.394 µM)	0.5 (≈ 0.394 µM)	–	C#CCCNC(=O)C[C@@H]1NC(=O)CNC(=O)[C@@H](CCN)NC(=O)[C@@H]([C@H](O)c2ccc(O)cc2)NC(=O)[C@H](CO)NC(=O)C[C@@H](C[C@@H](O)[C@@H](O)[C@@H](CCCCCCCCCCC)O[C@H]2OC[C@@H](O)[C@H](O)[C@H]2O)NC(=O)[C@H]([C@H](O)C(N)=O)NC(=O)[C@@H](CO)NC1=O
0.25 (≈ 0.206 µM)	0.125 (≈ 0.103 µM)	0.25 (≈ 0.206 µM)	CCCCCCCCCCC[C@@H](O[C@H]1OC[C@@H](O)[C@H](O)[C@H]1O)[C@H](O)[C@H](O)C[C@@H]1CC(=O)N[C@@H](CO)C(=O)N[C@H]([C@H](O)c2ccc(O)cc2)C(=O)N[C@H](CCN)C(=O)NCC(=O)N[C@@H](CC(N)=O)C(=O)N[C@H](CO)C(=O)N[C@@H]([C@H](O)C(N)=O)C(=O)N1
